The target of assay [1] is T1, human serotonin 5-HT1A receptor (Homo sapiens, UniProt P08908).
T1 construct: expressed in transfected cells; host or cells: CHO-K1 (cryopreserved, whole cells)
T1 sequence (P08908 1-422): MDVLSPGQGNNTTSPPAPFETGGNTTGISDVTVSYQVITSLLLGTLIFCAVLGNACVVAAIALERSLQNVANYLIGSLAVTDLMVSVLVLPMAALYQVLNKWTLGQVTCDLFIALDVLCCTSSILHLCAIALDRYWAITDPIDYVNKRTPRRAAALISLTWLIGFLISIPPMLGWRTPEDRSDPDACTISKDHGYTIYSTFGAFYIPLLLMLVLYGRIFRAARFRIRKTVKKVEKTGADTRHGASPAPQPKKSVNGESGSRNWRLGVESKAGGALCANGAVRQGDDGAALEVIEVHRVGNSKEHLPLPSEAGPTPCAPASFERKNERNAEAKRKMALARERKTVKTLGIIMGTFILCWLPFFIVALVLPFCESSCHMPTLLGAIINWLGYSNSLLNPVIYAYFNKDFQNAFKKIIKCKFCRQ
Description: Functional assay, inhibition of cAMP production, CHO-K1 cells. In kind it is cell-based. The procedure:
Tested and reference compounds were dissolved in dimethyl sulfoxide (DMSO) at a concentration of 10 mM. Serial dilutions were prepared in 96-well microplate in assay buffer, and 8 to 10 concentrations were tested. […] Thawed cells were resuspended in stimulation buffer (HBSS, 5 mM HEPES, […], and 0.1% BSA at pH 7.4) at 2 × 10^5 cells/mL. The 10 µL of cell suspension was added to tested compounds with 10 µM forskolin. Samples were loaded onto a white opaque half area 96-well microplate. […] The agonist and antagonist were added simultaneously. Cell stimulation was performed for 40 min at room temperature. After incubation, cAMP measurements were performed with homogeneous TR-FRET immunoassay using the LANCE Ultra cAMP kit (PerkinElmer, Waltham, MA, USA). Ten microliters of EucAMP Tracer Working Solution and 10 µl of ULight-anti-cAMP Tracer Working Solution were added, mixed, and incubated for 1 h. The TR-FRET signal was read on an EnVision microplate reader (PerkinElmer, USA). IC50 and EC50 were determined by nonlinear regression analysis using GraphPad Prism 6.0 software.
For orientation: Changes in cAMP serve as a functional read-out for many G protein-coupled receptors.

The next assay has as its target T2, human 5-HT7 receptor (Homo sapiens, UniProt P34969).
T2 construct: expressed in transfected cells; host or cells: CHO-K1 (membranes)
The experiment in a line: Radioligand binding, [3H]-5-CT, CHO-K1 membranes. The note with it: CHO-K1 cells, mean ± SEM, read-out: Serotonergic pKi 5-HT7 (converted). The procedure: (§1) Radioligand binding was performed on membranes from CHO-K1 cells stably transfected with the human 5-HT1A, 5-HT2A, 5-HT6, or 5-HT7 receptors. […] Binding experiments were conducted in 96-well microplates, and the reaction mix included the solution of the test compound, radioligand, and diluted membranes or the tissue suspension.
(§2) The reaction was terminated by rapid filtration through GF/B or GF/C filter mate presoaked with 0.3% polyethyleneimine for 30 min. Ten rapid washes with 200 µl 50 mM Tris buffer (4 °C, pH 7.4) were performed using an automated harvester system Harvester-96 MACH III FM (Tomtec). […] Radioactivity was counted in the MicroBeta2 scintillation counter (PerkinElmer) at approximately 30% efficiency. […] A single assay was performed with each compound concentrations in duplicate, and the whole assay was repeated in a three independent experiments.

The target of another assay is T3, human 5-HT1A receptor (Homo sapiens, UniProt P08908).
T3 construct: expressed in transfected cells; host or cells: CHO-K1 (membranes)
T3 sequence (P08908 1-422): T1 sequence (P08908 1-422)
The experiment in a line: Radioligand binding, [3H]8-OH-DPAT, CHO-K1 membranes. The settings on record: CHO-K1 cells, mean ± SEM, read-out: Serotonergic pKi 5-HT1A (converted). The procedure:
as §1, §2

The next assay concerns the target T4, human 5-HT6 receptor (Homo sapiens, UniProt P50406).
T4 construct: expressed in transfected cells; host or cells: CHO-K1 (membranes)
The experiment in a line: Radioligand binding, [3H]-LSD, CHO-K1 membranes. The note with it: CHO-K1 cells, mean ± SEM, read-out: Serotonergic pKi 5-HT6 (converted). The procedure: as §1, §2

In assay [2] the target is T5, serotonin transporter (SERT) (Rattus norvegicus, UniProt P31652).
T5 construct: from tissue; host or cells: rat cortex
The experiment in a line: Radioligand binding, [3H]-citalopram, rat cortex tissue. The settings on record: mean ± SEM, read-out: Serotonergic pKi SERT (converted). Here is the method:
as §1, §2

Structures are written as SMILES. Read-outs that look alike come from different tables or passages of the source.

T4 sequence (P50406 whole entry): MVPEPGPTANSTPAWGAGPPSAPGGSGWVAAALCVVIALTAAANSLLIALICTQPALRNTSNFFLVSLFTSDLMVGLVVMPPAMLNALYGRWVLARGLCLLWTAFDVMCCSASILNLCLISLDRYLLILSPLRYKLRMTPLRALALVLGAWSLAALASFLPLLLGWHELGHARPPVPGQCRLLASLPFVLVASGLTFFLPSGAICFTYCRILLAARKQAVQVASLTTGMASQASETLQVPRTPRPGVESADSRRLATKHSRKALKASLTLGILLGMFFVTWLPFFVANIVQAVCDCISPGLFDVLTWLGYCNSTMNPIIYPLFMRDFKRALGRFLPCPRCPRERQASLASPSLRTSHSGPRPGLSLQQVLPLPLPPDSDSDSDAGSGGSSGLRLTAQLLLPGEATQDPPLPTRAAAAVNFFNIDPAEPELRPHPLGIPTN
T5 sequence (P31652 whole entry): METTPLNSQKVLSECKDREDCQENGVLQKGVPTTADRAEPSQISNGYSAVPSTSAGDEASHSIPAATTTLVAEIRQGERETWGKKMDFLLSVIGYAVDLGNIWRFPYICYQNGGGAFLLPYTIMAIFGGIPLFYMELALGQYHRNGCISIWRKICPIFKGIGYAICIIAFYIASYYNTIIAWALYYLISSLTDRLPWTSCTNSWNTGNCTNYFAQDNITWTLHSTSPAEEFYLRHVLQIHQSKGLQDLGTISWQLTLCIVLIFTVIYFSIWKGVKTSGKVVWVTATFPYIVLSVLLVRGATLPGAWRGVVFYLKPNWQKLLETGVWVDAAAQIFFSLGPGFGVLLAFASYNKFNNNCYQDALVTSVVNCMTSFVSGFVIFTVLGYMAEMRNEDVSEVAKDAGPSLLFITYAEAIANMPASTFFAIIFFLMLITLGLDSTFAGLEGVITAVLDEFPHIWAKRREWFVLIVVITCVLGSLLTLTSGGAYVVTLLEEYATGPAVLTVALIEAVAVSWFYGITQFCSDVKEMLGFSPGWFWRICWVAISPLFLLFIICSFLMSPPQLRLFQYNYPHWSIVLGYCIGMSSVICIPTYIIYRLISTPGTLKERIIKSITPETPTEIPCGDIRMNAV
T2 sequence (P34969 whole entry): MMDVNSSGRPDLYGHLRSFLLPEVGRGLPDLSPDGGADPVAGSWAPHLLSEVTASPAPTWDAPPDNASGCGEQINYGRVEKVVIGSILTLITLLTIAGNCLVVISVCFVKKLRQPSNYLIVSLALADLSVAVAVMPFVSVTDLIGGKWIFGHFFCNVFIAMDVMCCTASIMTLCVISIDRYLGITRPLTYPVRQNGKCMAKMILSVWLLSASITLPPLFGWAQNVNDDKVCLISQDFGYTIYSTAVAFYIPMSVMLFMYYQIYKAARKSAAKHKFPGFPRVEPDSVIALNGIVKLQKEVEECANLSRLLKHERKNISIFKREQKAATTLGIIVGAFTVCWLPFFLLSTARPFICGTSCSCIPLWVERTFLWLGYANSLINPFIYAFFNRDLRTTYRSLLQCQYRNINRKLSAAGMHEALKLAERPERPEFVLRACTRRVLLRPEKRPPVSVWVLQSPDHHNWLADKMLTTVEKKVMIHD

On to `CCC(CN1CCN(c2ccccc2OC)CC1)NCCCOc1c(C)cccc1C.Cl.Cl` (stereo not drawn) [HBK-10, N-(3-(2,6-dimethylphenoxy)propyl)-1-(4-(2-methoxyphenyl)piperazin-1-yl)butan-2-amine dihydrochloride], for which, in assay [1] (5-HT1A, antagonist mode), the “Kb, fold lower compared with NAN-190” value is given as 10 fold. The compound also registered an antagonist equilibrium constant (Kb) in assay [1] (5-HT1A, antagonist mode, Cheng–Prusoff equation) of 64 nM. Further, the maximal response (Emax) in assay [1] (CHO-K1, read-out: Emax %, agonist mode) was 2%; in assay [1] (CHO-K1, read-out: Emax %, antagonist mode) it was 0%. The IC50 in assay [1] (read-out: pIC50 ± SEM, antagonist mode (converted)) was 191 nM. The Ki was 6.31 µM on human 5-HT7 receptor, 5.13 nM at human 5-HT1A receptor, 3.72 µM at human 5-HT6 receptor and 3.72 µM in assay [2].

As a reminder, the Kb is the equilibrium dissociation constant of an antagonist, usually derived from a functional assay. High values mean lower antagonist affinity, low ones higher antagonist affinity. What is called Emax is the size of the effect at its maximum, as opposed to the concentration needed.

(Values after PMC8400343, “Synthesis and Evaluation of the Antidepressant-like Properties of HBK-10, a Novel 2-Methoxyphenylpiperazine Derivative Targeting the 5-HT1A and D2 Receptors” (Pharmaceuticals, 2021).)
